US4175125A, “Method for treating methicillin resistant staphylococcus aureus” (Eli Lilly and Company, priority 1978, dated 1979)
Converted amounts (≈) assume the structure as drawn. Structures can show the parent of a compound that is named as a salt. Where two headings read alike, the source gives them in different places.

How the values were obtained:
[1] = test system: methicillin-resistant Staphylococcus aureus; assay: Gradient plate test (MIC) against methicillin-resistant Staphylococcus aureus; format: cell-based; details: Staphylococcus aureus, read-out: minimum inhibitory concentration (MIC)
Description: The method used is essentially that described by Bryson and Szybalski in 1952 (Science 116:45-46). The inoculum treatment method used for penicillin resistant Staphylococci was reported by Godzeski et al in Antimicrobial Agents and Chemotherapy, May, 1969, pp. 547-554.
A standard Falcon square plastic petri dish is used. A layer of agar (10 ml.) is poured into one of the square dishes, the dish tipped 5 mm. off the horizontal, and the agar layer allowed to harden in this position. This bottom layer of agar contains the antibiotic, the serum, and/or other material to be tested. The medium is Difco Penassay Agar containing 2 percent agar. We routinely used 4 ml. of human or horse serum for "serum-inactivation" testing. […] Therefore, serum is routinely added only to the bottom layer.
After the bottom, slanted layer of agar medium has hardened, the plate is placed flat and another 10 ml. of medium added and allowed to harden.
The inoculum of resistant Staphylococci, as described, is prepared by diluting the water suspension 1/50 in 0.25 percent agar in sterile water or saline. For Gram negative organisms, an overnight broth culture is diluted 1/50 in the 0.25 percent agar-water. This dilution is thoroughly shaken to evenly suspend the bacteria. To streak the plate, we use a 1 ml. pipet containing an aliquot of the final […] agar dilution. After a little practice, a smooth even stroke of inoculum can be laid down very rapidly. The trick is in the smoothness of the streak--it must be accomplished uniformly and quickly.
After 24 hours incubation at 35°-37° C. the plates are read by simply measuring the length of bacterial growth as a percentage of the entire streak distance which is then converted to the percent of antibiotic concentration in the plate.
Average values of duplicate measurements are calculated and the M.I.C.'s reported are average of 2 streaks on the plate and from 2 to 3 duplicate plates. Eight streaks can be easily placed on each plate. If sharp end points are not obtained, the middle concentration between the beginning of inhibition of the streak to the end of growth is measured. The concentration of the antibiotic under examination is varied from plate to plate in a series as follows: […]
This method of screening penicillins and cephalosporins is quite satisfactory. Control plates containing penicillin and staphcillin or prostaphlin, or other control antibiotic, are used daily for the resistant staphylococcal activity screen. The gradient plate method has shown differences between antibiotics that were not apparent by any other methods of screening. […] We believe that the gradient plate screen is more sensitive to small differences between related antibiotics than other methods and pictures of the plates can provide a permanent record. The method also lends itself readily to modification of specific purposes--e.g., cross gradients.
The compounds listed below are examples of compounds useful in the method of this invention. After the compound name there is given in parentheses, where tested, the minimum inhibitory concentrations (MIC) in micrograms per milliliter (μg/ml) for the compound in the above described gradient plate procedure test against methicillin-resistant Staphylococcus aureus, (in the absence of blood serum/in the presence of 20 percent blood serum).
and pharmaceutically acceptable salts thereof. The abbreviation "s.z." means skip zones.

[2] = test system: Staphylococcus aureus cultures; assay: Modified Bauer-Kirby Disc Susceptibility Test (Example 11); format: cell-based; design: zone of inhibition: dose or concentration left out as unconfirmed; details: for zone of inhibition: Staphylococcus aureus; for Change 37°-30°: 30 mg Disc
Description: This example exemplifies the antibiotic activity of 7-[2'-(3"-chloro-4"-fluorophenylthio)acetamido]cephalosporanic acid, a water soluble compound, described in Example 8, against various Staphylococcus aureus cultures, in a modified Bauer-Kirby Disc Susceptibility Test (Bauer, A. W., W. M. M. Kirby, J. C. Sherris, and M. Turck, 1966, Amer. J. Clin. Pathol. 45:493-496). In this test the cultures were incubated at both 37° C. or 30° C. […] 16, 1968, the heterogeneity of methicilllin-resistant S. aureus is manifested by incubation at 30° C.

[3] = in the presence of 20 percent blood serum
[4] = culture 3055 (penicillin sensitive), 30°, read-out: disc susceptibility (zone) at 30°
[5] = culture 3055 (penicillin sensitive), 37°, read-out: disc susceptibility (zone) at 37°
[6] = culture 3074 (methicillin sensitive, penicillinase producing), 30°, read-out: disc susceptibility (zone) at 30°
[7] = culture 3074 (methicillin sensitive, penicillinase producing), 37°, read-out: disc susceptibility (zone) at 37°
[8] = culture 3125 (methicillin resistant), 30°, read-out: disc susceptibility (zone) at 30°
[9] = culture 3125 (methicillin resistant), 37°, read-out: disc susceptibility (zone) at 37°
[10] = culture 3130 (methicillin resistant), 30°, read-out: disc susceptibility (zone) at 30°
[11] = culture 3130 (methicillin resistant), 37°, read-out: disc susceptibility (zone) at 37°
[12] = culture 3131 (methicillin resistant), 30°, read-out: disc susceptibility (zone) at 30°
[13] = culture 3131 (methicillin resistant), 37°, read-out: disc susceptibility (zone) at 37°
[14] = culture 3132 (methicillin resistant), 30°, read-out: disc susceptibility (zone) at 30°
[15] = culture 3132 (methicillin resistant), 37°, read-out: disc susceptibility (zone) at 37°
[16] = culture 3133 (methicillin resistant), 30°, read-out: disc susceptibility (zone) at 30°
[17] = culture 3133 (methicillin resistant), 37°, read-out: disc susceptibility (zone) at 37°
[18] = culture 3134 (methicillin resistant), 30°, read-out: disc susceptibility (zone) at 30°
[19] = culture 3134 (methicillin resistant), 37°, read-out: disc susceptibility (zone) at 37°
[20] = culture 3135 (methicillin resistant), 30°, read-out: disc susceptibility (zone) at 30°
[21] = culture 3135 (methicillin resistant), 37°, read-out: disc susceptibility (zone) at 37°
[22] = culture 3136 (methicillin resistant), 30°, read-out: disc susceptibility (zone) at 30°
[23] = culture 3136 (methicillin resistant), 37°, read-out: disc susceptibility (zone) at 37°
[24] = culture 3137 (methicillin resistant), 30°, read-out: disc susceptibility (zone) at 30°
[25] = culture 3137 (methicillin resistant), 37°, read-out: disc susceptibility (zone) at 37°
[26] = culture 3138 (methicillin resistant), 30°, read-out: disc susceptibility (zone) at 30°
[27] = culture 3138 (methicillin resistant), 37°, read-out: disc susceptibility (zone) at 37°
[28] = culture 3139 (methicillin resistant), 30°, read-out: disc susceptibility (zone) at 30°
[29] = culture 3139 (methicillin resistant), 37°, read-out: disc susceptibility (zone) at 37°
[30] = culture 3140 (methicillin resistant), 30°, read-out: disc susceptibility (zone) at 30°
[31] = culture 3140 (methicillin resistant), 37°, read-out: disc susceptibility (zone) at 37°
[32] = culture H232 (methicillin sensitive, penicillinase producing), 30°, read-out: disc susceptibility (zone) at 30°
[33] = culture H232 (methicillin sensitive, penicillinase producing), 37°, read-out: disc susceptibility (zone) at 37°

Compound: CC(=O)OCC1=C(C(=O)O)N2C(=O)C(NC(=O)CSc3ccc(Cl)c(Cl)c3)C2SC1 (stereo not shown) [Example 1, 7-(3,4-dichlorophenylthioacetamido)cephalosporanic acid]
- MIC ([1]; in the absence of blood serum): 1 µg/mL (≈ 2.04 µM)
- MIC [1, 3]: 1.7 µg/mL

Compound: CC(=O)OCC1=C(C(=O)O)N2C(=O)C(NC(=O)CSc3cc(Cl)ccc3Cl)C2SC1 (stereo not shown) [Example 2, 7-(2,5-Dichlorophenylthioacetamido)-cephalosporanic acid]
- MIC ([1]; in the absence of blood serum): 0.8 µg/mL (≈ 1.63 µM)
- MIC [1, 3]: 1 µg/mL

Compound: CC(=O)OCC1=C(C(=O)O)N2C(=O)C(NC(=O)CSc3cc(Cl)cc(Cl)c3)C2SC1 (stereo not shown) [Example 3, 7-(3,5-Dichlorophenylthioacetamido)-cephalosporanic acid]
- zone of inhibition [2, 4]: > 35 mm
- zone of inhibition [2, 5]: > 35 mm
- zone of inhibition [2, 6]: 35 mm
- zone of inhibition [2, 7]: 35 mm
- zone of inhibition [2, 8]: 37 mm
- zone of inhibition [2, 9]: 34.2 mm
- zone of inhibition [2, 10]: 33.6 mm
- zone of inhibition [2, 11]: 32 mm
- zone of inhibition [2, 12]: 31.8 mm
- zone of inhibition [2, 13]: 30.6 mm
- zone of inhibition [2, 14]: 32.6 mm
- zone of inhibition [2, 15]: 31 mm
- zone of inhibition [2, 16]: 30.8 mm
- zone of inhibition [2, 17]: 29 mm
- zone of inhibition [2, 18]: 33 mm
- zone of inhibition [2, 19]: 29.8 mm
- zone of inhibition [2, 20]: 29.6 mm
- zone of inhibition [2, 21]: 28.3 mm
- zone of inhibition [2, 22]: 29.8 mm
- zone of inhibition [2, 23]: 35 mm
- zone of inhibition [2, 24]: 26 mm
- zone of inhibition [2, 25]: 26.2 mm
- zone of inhibition [2, 26]: 29.4 mm
- zone of inhibition [2, 27]: 27 mm
- zone of inhibition [2, 28]: 32.2 mm
- zone of inhibition [2, 29]: 36 mm
- zone of inhibition [2, 30]: 30.2 mm
- zone of inhibition [2, 31]: 28.8 mm
- zone of inhibition [2, 32]: 32.6 mm
- zone of inhibition [2, 33]: 34.1 mm
- Change 37°-30° ([2]; culture 3074): 0 mm
- Change 37°-30° ([2]; culture 3125): +2.8 mm
- Change 37°-30° ([2]; culture 3130): +1.6 mm
- Change 37°-30° ([2]; culture 3131): +1.2 mm
- Change 37°-30° ([2]; culture 3132): +1.6 mm
- Change 37°-30° ([2]; culture 3133): +1.8 mm
- Change 37°-30° ([2]; culture 3134): +3.2 mm
- Change 37°-30° ([2]; culture 3135): +1.3 mm
- Change 37°-30° ([2]; culture 3136): +5.2 mm
- Change 37°-30° ([2]; culture 3137): -0.2 mm
- Change 37°-30° ([2]; culture 3138): +2.4 mm
- Change 37°-30° ([2]; culture 3139): -3.8 mm
- Change 37°-30° ([2]; culture 3140): +1.4 mm
- Change 37°-30° ([2]; culture H232): -1.5 mm
- MIC ([1]; in the absence of blood serum): 2 µg/mL (≈ 4.07 µM)
- MIC [1, 3]: 8.7 µg/mL

Compound: CC(=O)OCC1=C(C(=O)O)N2C(=O)C(NC(=O)CSc3ccc(F)c(Cl)c3)C2SC1 (stereo not shown) [Example 8, 7-(3'-chloro-4-fluorophenylthioacetamido)cephalosporanic acid, sodium salt]
- zone of inhibition [2, 4]: > 35 mm
- zone of inhibition [2, 5]: > 35 mm
- zone of inhibition [2, 6]: 36 mm
- zone of inhibition [2, 7]: 36 mm
- zone of inhibition [2, 8]: 36 mm
- zone of inhibition [2, 9]: 33.8 mm
- zone of inhibition [2, 10]: 31 mm
- zone of inhibition [2, 11]: 33.2 mm
- zone of inhibition [2, 12]: 29 mm
- zone of inhibition [2, 13]: 26.6 mm
- zone of inhibition [2, 14]: 28 mm
- zone of inhibition [2, 15]: 29.4 mm
- zone of inhibition [2, 16]: 24.8 mm
- zone of inhibition [2, 17]: 27.6 mm
- zone of inhibition [2, 18]: 27.8 mm
- zone of inhibition [2, 19]: 28 mm
- zone of inhibition [2, 20]: 26.2 mm
- zone of inhibition [2, 21]: 28.2 mm
- zone of inhibition [2, 22]: 31 mm
- zone of inhibition [2, 23]: 35 mm
- zone of inhibition [2, 24]: 22.1 mm
- zone of inhibition [2, 25]: 24.4 mm
- zone of inhibition [2, 26]: 25.2 mm
- zone of inhibition [2, 27]: 25.6 mm
- zone of inhibition [2, 28]: 31.6 mm
- zone of inhibition [2, 29]: 34 mm
- zone of inhibition [2, 30]: 26.4 mm
- zone of inhibition [2, 31]: 28.4 mm
- zone of inhibition [2, 32]: 34.3 mm
- zone of inhibition [2, 33]: 33.4 mm
- Change 37°-30° ([2]; culture 3074): 0 mm
- Change 37°-30° ([2]; culture 3125): +2.2 mm
- Change 37°-30° ([2]; culture 3130): -2.2 mm
- Change 37°-30° ([2]; culture 3131): +2.4 mm
- Change 37°-30° ([2]; culture 3132): -1.4 mm
- Change 37°-30° ([2]; culture 3133): -2.8 mm
- Change 37°-30° ([2]; culture 3134): -0.2 mm
- Change 37°-30° ([2]; culture 3135): -2.0 mm
- Change 37°-30° ([2]; culture 3136): -4.0 mm
- Change 37°-30° ([2]; culture 3137): -2.3 mm
- Change 37°-30° ([2]; culture 3138): -0.4 mm
- Change 37°-30° ([2]; culture 3139): -2.4 mm
- Change 37°-30° ([2]; culture 3140): -2.0 mm
- Change 37°-30° ([2]; culture H232): +0.9 mm
- effectiveness vs cephalothin in disc susceptibility test ([2]; incubation at 37° C. or 30° C.): more effective than cephalothin
- MIC ([1]; in the absence of blood serum): 9.3 µg/mL
- MIC [1, 3]: 12.2 µg/mL
